Assay results from ChEMBL document CHEMBL1201862, “PubChem BioAssay data set” (2004).
Activity calls are given as the source filed them. Rule as the data show it, for most assays here: actives have a measured EC50 and inactives only a lower limit.

Assays:
Bcl-2-like protein 10 = molecular target: T1, Bcl-2-like protein 10 (Homo sapiens, UniProt Q9HD36); assay: Biochemical TR3 FP assay of Bcl-B inhibitor potency, EC50 (AID 1243); type: functional
T1 sequence (Q9HD36 whole entry): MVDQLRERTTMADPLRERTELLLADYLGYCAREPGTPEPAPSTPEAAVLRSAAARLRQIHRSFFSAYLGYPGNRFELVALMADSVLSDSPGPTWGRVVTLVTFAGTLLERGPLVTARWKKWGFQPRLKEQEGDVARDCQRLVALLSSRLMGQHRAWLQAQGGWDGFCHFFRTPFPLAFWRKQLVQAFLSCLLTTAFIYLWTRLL

[1] = Luminescence Cell-Based Dose Response to Identify Activators of 5'UTR Stem-Loop Driven Prion Protein mRNA Translation in H4-C Neuroglioblastoma Cells. [Related pubchem assays: 1829 (Project Summary), 1814 (Primary HTS)]; type: functional
[2] = Luminescence Cell-Based Dose Response to Identify Activators of Luciferase Translation or Activity in H4-C Neuroglioblastoma Cells. [Related pubchem assays: 1829 (Project Summary), 1814 (Primary HTS)]; type: functional
[3] = Luminescence Cell-Based Dose Confirmation to Identify Activators of 5'UTR Stem-Loop Driven Alpha-Synuclein mRNA Translation in H4 Neuroglioblastoma Cells. [Related pubchem assays: 1829 (Project Summary), 1814 (Primary HTS)]; type: functional
[4] = molecular target: Protein-tyrosine kinase 2-beta (Homo sapiens, UniProt Q14289);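 also: potency of inhibitors of PYK2 kinase phosphorylation of poly-GT substrate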
H4 = assay: Luminescence Cell-Based Dose Response HTS to Identify Activators of 5'UTR Stem-Loop Driven Prion Protein mRNA Translation in H4 Neuroglioblastoma Cells. [Related pubchem assays: 1829 (Project Summary), 1814 (Primary HTS)]; type: functional; conditions: Homo sapiens
[5] = molecular target: T2, Zinc finger protein mex-5 (Caenorhabditis elegans, UniProt Q9XUB2); assay: MEX-5/TCR-2 RNA interaction inhibitors, dose response, biochemical, C. elegans, fluorescence polarization (AID 1960)
T2 sequence (Q9XUB2 whole entry): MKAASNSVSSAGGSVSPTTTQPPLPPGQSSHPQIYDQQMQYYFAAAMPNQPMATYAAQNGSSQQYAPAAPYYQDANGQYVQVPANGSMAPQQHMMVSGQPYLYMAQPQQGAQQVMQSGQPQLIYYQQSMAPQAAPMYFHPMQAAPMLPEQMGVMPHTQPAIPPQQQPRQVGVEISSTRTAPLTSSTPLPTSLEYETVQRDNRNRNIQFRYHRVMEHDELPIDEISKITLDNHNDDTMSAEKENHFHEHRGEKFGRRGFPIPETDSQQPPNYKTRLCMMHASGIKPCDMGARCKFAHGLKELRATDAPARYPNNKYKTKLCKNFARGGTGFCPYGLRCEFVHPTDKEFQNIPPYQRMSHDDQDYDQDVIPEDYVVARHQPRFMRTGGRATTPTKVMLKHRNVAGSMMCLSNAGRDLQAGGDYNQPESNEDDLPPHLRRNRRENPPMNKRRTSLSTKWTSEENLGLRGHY

[6] = molecular target: T3, RNA-binding protein pos-1 (Caenorhabditis elegans, UniProt G5EF15); assay: inhibitors of POS-1/mex-3 RNA binding, dose response, biochemical, fluorescence polarization (AID 1964);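 also: purified POS-1 fused to maltose binding protein made in E. coli; potency of compounds blocking POS-1 binding to fluorescent RNA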
T3 sequence (G5EF15 whole entry): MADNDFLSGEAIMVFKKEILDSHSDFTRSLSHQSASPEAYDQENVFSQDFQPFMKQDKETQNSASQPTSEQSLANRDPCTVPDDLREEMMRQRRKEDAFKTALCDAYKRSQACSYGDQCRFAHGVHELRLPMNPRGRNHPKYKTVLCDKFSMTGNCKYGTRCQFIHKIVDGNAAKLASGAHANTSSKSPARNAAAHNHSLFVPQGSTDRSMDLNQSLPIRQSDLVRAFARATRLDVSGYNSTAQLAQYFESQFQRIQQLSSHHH

Estrogen receptor beta = Estrogen receptor beta (Homo sapiens, UniProt Q92731);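 also: recombinant ER-beta bound to coactivator SRC1 peptide in presence of estradiol agonist; inhibitors block coactivator peptide binding and lower the FRET signal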
[7] = Luminescence Cell-Based Dose Response HTS to Identify Activators of Luciferase Translation or Activity in H4 […] Cells. [Related pubchem assays: 1829 (Project Summary), 1814 (Primary HTS)]; type: functional
[8] = molecular target: Neuropeptide Y receptor type 1 (Homo sapiens, UniProt P25929); assay: NPY-Y1 receptor antagonist potency, dose response, cell-based (AID 1277); type: functional
[9] = molecular target: Neuropeptide Y receptor type 2 (Homo sapiens, UniProt P49146); assay: NPY-Y2 antagonist potency, selectivity check, dose response, counter-screen for NPY-Y1 antagonist project, cell-based (AID 1278); type: functional
HeLa = assay: Cytotoxicity counterscreen assay for transcriptional activators of heat shock protein 70 (Hsp70). [Related pubchem assays: 1203, 1252 ]; type: functional; conditions: Homo sapiens;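 also: cells exposed to compound for 16 hours before readout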
BJ [10] = assay: cytotoxicity toward BJ-TERT-LT-ST fibroblasts, dose response, cell-based, RAS-independent, luminescence (AID 1935); type: functional; conditions: Homo sapiens;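 also: BJ fibroblasts immortalized with TERT plus LT and ST oncogenes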
[11] = Luminescence Cell-Based Dose Response HTS to Identify Inhibitors of 5'UTR Stem-Loop Driven Prion Protein mRNA Translation in H4 Neuroglioblastoma Cells. [Related pubchem assays: 1827 (Project Summary), 1813 (Primary HTS)]; type: functional
Streptokinase A = molecular target: T4, Streptokinase A (Streptococcus pyogenes serotype M1, UniProt P10520); assay: S. pyogenes streptokinase expression inhibitors, potency, dose response, plasminogen activation absorbance, OD405 (AID 1914); type: functional, Streptococcus pyogenes M1 GAS;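 also: secreted streptokinase activity via plasminogen activation per viability signal from cell pellet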
T4 sequence (P10520 whole entry): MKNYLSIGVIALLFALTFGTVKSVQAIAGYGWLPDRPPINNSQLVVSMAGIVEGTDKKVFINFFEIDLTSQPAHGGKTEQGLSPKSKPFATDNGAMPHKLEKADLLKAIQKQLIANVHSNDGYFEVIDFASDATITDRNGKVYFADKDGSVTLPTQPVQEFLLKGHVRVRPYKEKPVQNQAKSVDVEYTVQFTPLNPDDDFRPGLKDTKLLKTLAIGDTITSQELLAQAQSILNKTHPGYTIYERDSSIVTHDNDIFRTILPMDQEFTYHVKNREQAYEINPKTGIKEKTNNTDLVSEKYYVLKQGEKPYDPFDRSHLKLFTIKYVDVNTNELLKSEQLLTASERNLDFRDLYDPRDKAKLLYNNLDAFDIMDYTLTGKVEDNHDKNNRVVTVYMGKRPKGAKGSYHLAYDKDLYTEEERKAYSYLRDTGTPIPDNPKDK

[12] = system: Streptococcus sp. 'group A'; assay: growth inhibition of control SK(-) GAS strain, dose response, counter-screen for streptokinase expression inhibitor project, luminescence, kanamycin, BacTiterGlo, confirmation (AID 1900); type: functional, organism-based
[13] = inhibitors of SNCA 5'UTR-driven reporter translation, confirmation, H4 neuroglioma cells, luminescence (AID 1988); type: functional, cell-based
BJ [14] = assay: cytotoxicity toward Ras-transformed BJeLR fibroblasts, dose response, cell-based, alamar blue fluorescence, cherrypicked samples (AID 2631); type: functional; conditions: Homo sapiens;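 also: confirmatory dose-response assay in RAS-dependent BJ fibroblasts engineered with TERT, LT and ST, with cytotoxicity read by fluorescence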
[15] = cytotoxicity toward DRD oncogenic fibroblasts, dose response, cell-based, non-viral oncogenic, luminescence (AID 1934); type: functional; conditions: Homo sapiens
BJ [16] = assay: cells; type: functional, cell-based; conditions: Homo sapiens
[17] = molecular target: Mothers against decapentaplegic homolog 3 (Homo sapiens, UniProt P84022); assay: SMAD3 transcription factor inhibitors, dose response (AID 715); type: functional
[18] = inhibitors of firefly luciferase expression or activity, dose response, H4 neuroglioma cells, luminescence (AID 1990); type: functional, cell-based
Estrogen receptor = molecular target: T5, Estrogen receptor (Homo sapiens, UniProt P03372);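 also: potency for inhibiting coactivator peptide recruitment to the receptor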
T5 sequence (P03372 whole entry): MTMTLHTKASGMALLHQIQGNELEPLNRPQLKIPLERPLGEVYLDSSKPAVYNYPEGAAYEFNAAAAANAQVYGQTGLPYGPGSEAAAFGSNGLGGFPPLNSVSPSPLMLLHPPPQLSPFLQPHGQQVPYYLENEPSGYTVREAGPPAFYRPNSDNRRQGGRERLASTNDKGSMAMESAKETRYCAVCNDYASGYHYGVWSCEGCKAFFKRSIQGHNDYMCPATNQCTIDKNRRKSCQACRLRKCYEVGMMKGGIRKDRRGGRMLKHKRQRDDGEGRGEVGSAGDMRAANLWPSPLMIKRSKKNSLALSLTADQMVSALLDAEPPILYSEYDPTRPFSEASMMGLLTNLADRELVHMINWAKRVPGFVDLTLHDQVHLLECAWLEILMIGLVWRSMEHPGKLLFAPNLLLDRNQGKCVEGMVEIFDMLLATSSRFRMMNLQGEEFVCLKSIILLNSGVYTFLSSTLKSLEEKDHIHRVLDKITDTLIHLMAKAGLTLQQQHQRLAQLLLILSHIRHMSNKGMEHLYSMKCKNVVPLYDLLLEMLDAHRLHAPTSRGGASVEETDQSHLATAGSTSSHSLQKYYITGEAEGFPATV

Streptococcus = assay: Group A Streptococcus viability loss, dose response, counter-screen for streptokinase expression inhibitor project, luminescence, BacTiterGlo (AID 1915); type: functional, organism-based;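 also: potency for reduction of bacterial viability or growth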

Sequence of Neuropeptide Y receptor type 2 (P49146 whole entry): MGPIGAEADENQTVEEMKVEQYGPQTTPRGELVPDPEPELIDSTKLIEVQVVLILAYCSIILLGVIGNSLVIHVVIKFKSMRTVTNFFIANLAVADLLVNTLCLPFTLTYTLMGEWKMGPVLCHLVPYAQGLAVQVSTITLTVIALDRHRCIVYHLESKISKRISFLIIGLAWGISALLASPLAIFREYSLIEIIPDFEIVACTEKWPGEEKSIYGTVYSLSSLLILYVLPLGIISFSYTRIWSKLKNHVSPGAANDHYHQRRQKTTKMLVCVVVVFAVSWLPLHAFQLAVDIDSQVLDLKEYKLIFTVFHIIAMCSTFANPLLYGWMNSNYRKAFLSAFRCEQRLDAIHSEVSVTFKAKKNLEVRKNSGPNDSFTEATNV
Sequence of Mothers against decapentaplegic homolog 3 (P84022 whole entry): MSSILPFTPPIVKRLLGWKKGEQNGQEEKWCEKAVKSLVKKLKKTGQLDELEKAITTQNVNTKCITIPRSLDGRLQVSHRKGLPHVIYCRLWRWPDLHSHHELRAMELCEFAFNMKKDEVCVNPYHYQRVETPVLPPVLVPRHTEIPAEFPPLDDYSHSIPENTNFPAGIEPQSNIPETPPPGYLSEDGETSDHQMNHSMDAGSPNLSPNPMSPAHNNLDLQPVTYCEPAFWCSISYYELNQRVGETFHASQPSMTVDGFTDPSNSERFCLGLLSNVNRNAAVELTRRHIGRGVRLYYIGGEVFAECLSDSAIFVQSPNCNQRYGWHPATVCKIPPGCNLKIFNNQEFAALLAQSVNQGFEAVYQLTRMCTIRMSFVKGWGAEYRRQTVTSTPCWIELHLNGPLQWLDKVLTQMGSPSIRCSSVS
Sequence of Estrogen receptor beta (Q92731 whole entry): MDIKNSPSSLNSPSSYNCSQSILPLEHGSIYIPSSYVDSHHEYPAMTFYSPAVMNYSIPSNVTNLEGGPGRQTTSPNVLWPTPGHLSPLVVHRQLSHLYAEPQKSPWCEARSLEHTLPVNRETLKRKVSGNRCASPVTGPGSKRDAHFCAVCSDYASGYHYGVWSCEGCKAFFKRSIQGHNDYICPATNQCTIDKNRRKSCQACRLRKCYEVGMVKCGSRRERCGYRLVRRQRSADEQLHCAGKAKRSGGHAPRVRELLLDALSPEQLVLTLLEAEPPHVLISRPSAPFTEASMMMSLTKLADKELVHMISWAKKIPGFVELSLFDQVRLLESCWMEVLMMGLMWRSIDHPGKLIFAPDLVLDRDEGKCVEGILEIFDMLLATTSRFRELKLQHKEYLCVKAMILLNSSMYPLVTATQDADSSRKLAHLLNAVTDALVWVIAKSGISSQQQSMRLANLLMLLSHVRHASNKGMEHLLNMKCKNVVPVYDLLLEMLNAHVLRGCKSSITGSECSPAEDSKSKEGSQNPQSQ
Sequence of Neuropeptide Y receptor type 1 (P25929 whole entry): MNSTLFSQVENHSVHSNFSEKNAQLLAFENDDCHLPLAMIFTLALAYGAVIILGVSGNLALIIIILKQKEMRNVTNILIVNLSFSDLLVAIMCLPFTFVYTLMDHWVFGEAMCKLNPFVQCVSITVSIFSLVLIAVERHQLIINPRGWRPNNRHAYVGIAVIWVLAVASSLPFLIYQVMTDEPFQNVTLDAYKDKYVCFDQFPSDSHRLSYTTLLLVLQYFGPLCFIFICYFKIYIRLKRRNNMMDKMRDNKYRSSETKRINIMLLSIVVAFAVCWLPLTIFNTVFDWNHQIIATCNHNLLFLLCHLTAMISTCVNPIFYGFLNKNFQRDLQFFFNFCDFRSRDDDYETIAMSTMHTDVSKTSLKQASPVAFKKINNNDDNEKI
Sequence of Protein-tyrosine kinase 2-beta (Q14289 whole entry): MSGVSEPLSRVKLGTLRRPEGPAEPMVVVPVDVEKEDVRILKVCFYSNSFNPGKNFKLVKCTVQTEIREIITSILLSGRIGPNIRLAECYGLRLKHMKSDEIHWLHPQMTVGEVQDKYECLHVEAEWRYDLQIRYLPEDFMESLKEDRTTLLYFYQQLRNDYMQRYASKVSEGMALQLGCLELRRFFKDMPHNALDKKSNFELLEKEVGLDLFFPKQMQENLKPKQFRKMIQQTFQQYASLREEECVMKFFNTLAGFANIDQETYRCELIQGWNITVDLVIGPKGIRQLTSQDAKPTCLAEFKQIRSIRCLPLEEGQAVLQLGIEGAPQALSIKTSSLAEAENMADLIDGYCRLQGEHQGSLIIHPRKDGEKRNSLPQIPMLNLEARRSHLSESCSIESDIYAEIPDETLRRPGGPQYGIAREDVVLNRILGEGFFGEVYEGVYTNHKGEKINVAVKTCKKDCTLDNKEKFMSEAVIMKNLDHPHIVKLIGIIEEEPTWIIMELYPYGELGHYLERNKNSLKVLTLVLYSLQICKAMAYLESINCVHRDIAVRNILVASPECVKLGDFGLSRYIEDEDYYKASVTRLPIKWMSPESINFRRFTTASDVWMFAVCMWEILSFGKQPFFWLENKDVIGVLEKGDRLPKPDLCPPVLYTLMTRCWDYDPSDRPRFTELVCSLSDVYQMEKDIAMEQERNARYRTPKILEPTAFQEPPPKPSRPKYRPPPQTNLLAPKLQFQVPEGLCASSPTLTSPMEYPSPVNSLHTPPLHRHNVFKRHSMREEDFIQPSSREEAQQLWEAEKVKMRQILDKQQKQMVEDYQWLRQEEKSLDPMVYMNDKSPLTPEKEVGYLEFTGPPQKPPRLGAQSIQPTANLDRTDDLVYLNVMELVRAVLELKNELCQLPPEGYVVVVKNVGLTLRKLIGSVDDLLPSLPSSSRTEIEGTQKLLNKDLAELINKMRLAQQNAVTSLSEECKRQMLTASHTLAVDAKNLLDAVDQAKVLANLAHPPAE

O=C1C=CC(=O)C(/C(=C/NCc2ccccc2)[N+](=O)[O-])=C1
EC50 (Bcl-2-like protein 10): 5.7 µM (active)

CCc1c(C)nc(SCC(=O)c2cccs2)c(C#N)c1C
EC50 [1]: 0.332 µM (active) | EC50 [2]: 0.302 µM (active) | EC50 [3]: 0.552 µM (active) | IC50 [4]: > 69.5 µM (not active) | EC50 (H4): 0.149 µM (active) | EC50 [5]: 36.7 µM (inconclusive) | EC50 [6]: 11.5 µM (inconclusive) | IC50 (Estrogen receptor beta): > 50 µM (not active) | EC50 [7]: < 0.1 µM (inconclusive)

Cc1nn(-c2ccccc2)c2sc(C(=O)O)cc12
IC50 [8]: > 35 µM (not active) | IC50 [9]: > 35 µM (not active)

Cn1c(CCN2CCOCC2)nc2cc(NC(=O)COc3ccc(Cl)cc3)ccc21
CC50 (HeLa): > 99 µM (not active)

CCOC(=O)c1c2c(n(C)c1COC)C(=O)C(=O)c1ccc(Br)cc1-2
EC50 (BJ [10]): 1.08 µM (inconclusive) | EC50 [11]: 5.16 µM (active) | EC50 (Streptokinase A): > 150 µM (not active) | EC50 [12]: 1.13 µM (active) | EC50 [13]: 1.44 µM (active) | EC50 (BJ [14]): 0.562 µM (active) | EC50 [15]: 2.36 µM (active) | EC50 (BJ [16]): 3.08 µM (active) | IC50 [17]: 0.771 µM (active) | EC50 [18]: 4.87 µM (active) | IC50 (Estrogen receptor): 8.87 µM (active) | EC50 (Streptococcus): 24.3 µM (active)
